Experimental data as given in patent US20100197603A1, “USE OF RGDSPASSKP AND OPTIONALLY ANGIOTENSIN II AS THERAPEUTIC AGENTS IN THE TREATMENT OF EG S. PNEUMONIAE INFECTIONS” (priority 2007, published 2010).
Where no end group is shown, it is not given here.

Assays:
[1] = system: hepatitis B virus (HBV) ayw strain; test: HBV experimental assay system (HepG2-2.2.15, TaqMan PCR of secreted HBV DNA); format: cell-based; settings: 10 micrograms per ml, six days, HBV DNA by TaqMan PCR
Description: HepG2-2.2.15 is a stable cell line containing the hepatitis B virus (HBV) ayw strain genome (ATCC Cat. No. CRL-11997). Antiviral compounds blocking any late step of viral replication such as transcription, translation, pregenome encapsidation, reverse transcription, particle assembly and release can be identified and characterized using this cell line. In this assay, an active compound will reduce the production of secreted HBV from cells, measured by utilizing real time quantitative PCR (TaqMan) assay to directly and accurately measure HBV DNA copies.
HepG2-2.2.15 cells were plated in 96-well microtiter plates. After 16-24 hours the confluent monolayer of HepG2-2.2.15 cells was washed and the medium was replaced with complete medium containing test peptides—10 micrograms per ml—in duplicate. […] Six days following the initial administration of the peptides, the cell culture supernatants was collected, treated with pronase and DNAse and then used in a real-time quantitative TaqMan PCR assay. The PCR-amplified HBV DNA was detected in real-time by monitoring increases in fluorescence signals that result from the exonucleolytic degradation of a quenched fluorescence probe molecule that hybridizes to the amplified HBV DNA. […] Antiviral activity was calculated from the reduction in HBV DNA levels (% virus control). […]

Streptococcus pneumoniae = Streptococcus pneumoniae growth assay; format: cell-based; settings: 10 micrograms per ml; 5×10^5 CFU/mL; read visually
murine spleen cells = test: Th1/Th2 cytokine profiling assay (Ovalbumin-restimulated spleen cells, CBA kit); format: cell-based, Balb/c mice; settings: 10 micrograms per ml, Ovalbumin restimulation, 72 hours
[2] = system: Primary Human endothelial cells (HUVEC); test: Endothelial cell migration assay; format: cell-based; settings: 10 micrograms per ml, 22 hours
HCMV strain AD169 = test: HCMV plaque formation assay in MRC-5 cells; settings: for inhibition of HCMV plaque formation as compared to the virus control: 10 micrograms per ml, 7-10 days
HIV-1IIIB = test: HIV-1 antiviral assay in CEM-SS cells (MTS readout)
HUVEC = test: Endothelial tube formation assay; format: cell-based, human; settings: 10 micrograms per ml, 20 hours

Compound	inhibition of HBV replication as compared to the virus control infection [1]	inhibition of the growth of Streptococcus pneumoniae (Streptococcus pneumoniae)	change of the production of IL-5 (murine spleen cells)	induction of the production of IFN-γ (murine spleen cells)	induction of the production of IL-2 (murine spleen cells)	induction of the production of IL-4 (murine spleen cells)	induction of the production of TNF-alpha (murine spleen cells)	inhibition of the migration of human endothelial cells [2]	inhibition of HCMV plaque formation as compared to the virus control (HCMV strain AD169)	antiviral activity of positive control compound (HCMV) (HCMV strain AD169; positive control)	antiviral activity of positive control compounds (HIV-1) (HIV-1IIIB)	inhibition of the tube formation of human endothelial cells (HUVEC)
Asp-Arg-Val-Tyr-Ile-His-Pro-Phe-OH (DRVYIHPF-OH) [Peptide 2]	43.4%	100%	did not significantly change	36.4%	did not significantly change	55%	did not significantly change	10%	did not inhibit			
Nc1nc(O)c2ncn(COC(CO)CO)c2n1 [Ganciclovir, reference compound]										expected levels of antiviral activity		
Cc1cn([C@H]2C[C@H](N=[N+]=[N-])[C@@H](CO)O2)c(=O)[nH]c1=O [AZT]											expected levels of antiviral activity	
CC(C)(C)NC(=O)[C@@H]1CN(Cc2cccnc2)CCN1C[C@@H](O)C[C@@H](Cc1ccccc1)C(=O)N[C@H]1c2ccccc2C[C@H]1O [indinavir]											expected levels of antiviral activity	
Arg-Gly-Asp-Ser-Pro-Ala-Ser-Ser-Lys-Pro-OH (RGDSPASSKP-OH) [Peptide 1]	57.8%	100%	did not significantly change	24.5%	134.2%	132.5%	34.0%	2%	did not inhibit			54%
